Where a name gives a salt, the structure may show the parent alone.
Assays:
[1] = tested on: ear sebaceous glands; test: lipid (sebum) synthesis in ear sebaceous glands of androgen-stimulated female hamsters, ear biopsies incubated with radioactive acetate; assay type: in vivo, hamster; conditions: for lipid synthesis inhibition / inhibition in vivo at 100 µg/day: dose 100 μg per day; for lipid synthesis inhibition / inhibition in vivo at 100 µg/day / inhibition in vivo at 500 µg/day: androgen-stimulated female hamsters, percentages may rise over 100%; for inhibition in vivo at 500 µg/day: dose 500 μg per day
Procedure: The sebum synthesis inhibiting activities of 1H-imidazole-1-ethanol and the esters of formula I were established in a number of animal species and particularly in the hamster much research has been carried out. Androgens administered to female hamsters stimulate the sebum synthesis in ear sebaceous glands and the extent of sebum synthesis is determined by incubating ear biopsies with radioactive acetate (Hall D. W. R. et al, Hormonal Control of Hamster Ear Sebaceous Gland Lipogenesis, Arch. Dermatol Res., 275, 1 (1983)). The test was based on the conversion of the added radioactive acetate into lipids which after extraction with hexane can be determined in a scintillation counter. In the following Table, the inhibition percentages of a number of substances are shown and the percentages may rise over 100%. A very strong activity of a compound will inhibit both the activity stimulated by androgen and the basal sebum synthesis activity of the sebaceous gland.

[2] = tested on: lipid synthesis in other organs; test: lipid synthesis inhibition in organs other than the sebaceous glands; assay type: in vivo; conditions: animal tests
[3] = tested on: hormonal activity; test: hormonal activity in animal tests; assay type: in vivo
[4] = penetration of the skin; assay type: in vivo, human; conditions: in humans
[5] = tested on: sebum secretion; test: inhibition of sebum secretion in humans; assay type: in vivo, human
[6] = skin irritation; assay type: in vivo, human; conditions: in humans

SMILES	inhibition in vivo at 100 µg/day ([1]; Mesocricetus auratus) [%]	other results
O=C(OCCn1ccnc1)c1ccc(Cl)cc1Cl [2,4-Cl2 C6 H3, base]	–	lipid synthesis inhibition [1]: 60%
O=C(O)/C=C\C(=O)O.O=C(OCCn1ccnc1)c1ccc(Cl)cc1Cl [2,4-Cl2 C6 H3, maleate, 2-(1H-imidazol-1-yl)-ethyl 2,4-dichlorobenzoate (Z)-2-butenedioate(1:1)]	–	lipid synthesis inhibition [1]: 37%
O=C(OCCn1ccnc1)c1cccs1 [2-thiophene, 2-(1H-imidazol-1-yl)-ethyl 2-thiophenecarboxylate]	89	–
O=C(OCCn1ccnc1)c1ccc(C(F)(F)F)cc1 [4-CF3 C6 H4]	–	inhibition in vivo at 500 µg/day ([1]; Mesocricetus auratus): 70%
Cc1ccc(C(=O)OCCn2ccnc2)cc1 [4-CH3 C6 H4, base]	91	–
Cc1ccc(C(=O)OCCn2ccnc2)cc1 [4-CH3 C6 H4, maleate]	–	inhibition in vivo at 500 µg/day ([1]; Mesocricetus auratus): 92%
COc1ccc(C(=O)OCCn2ccnc2)cc1 [4-CH3 OC6 H4]	83	–
O=C(OCCn1ccnc1)c1ccc(Cl)cc1 [4-ClC6 H4]	–	inhibition in vivo at 500 µg/day ([1]; Mesocricetus auratus): 49%
O=C(OCCn1ccnc1)c1ccncc1 [4-pyridyl]	44	–
CC(C)(C)c1ccc(C(=O)OCCn2ccnc2)cc1 [4-tBuC6 H4, HCl]	–	inhibition in vivo at 500 µg/day ([1]; Mesocricetus auratus): 81%
CC(C)(C)c1ccc(C(=O)OCCn2ccnc2)cc1 [4-tBuC6 H4, base]	67	–
CCCC(=O)OCCn1ccnc1 [(CH2)2 CH3]	106	–
CC(C)(C)C(=O)OCCn1ccnc1 [(CH3)3 --C--]	72	–
O=C(CCc1ccccc1)OCCn1ccnc1 [C6 H5 (CH2)2]	76	–
O=C(C=Cc1ccccc1)OCCn1ccnc1 [C6 H5 --CH=CH]	59	–
O=C(OCCn1ccnc1)c1ccccc1 [C6 H5, 2-(1H-imidazol-1-yl)-ethyl benzoate]	82	lipid synthesis inhibition in other organs [2]: no lipid synthesis inhibition in other organs; hormonal activity [3]: no lipid synthesis inhibition in other organs or hormonal activity were found; penetration of the skin [4]: good penetration of the skin; inhibition of the sebum secretion [5]: good inhibition of the sebum secretion; irritation [6]: little irriation
CCCCCCCCCCCCCCCC(=O)OCCn1ccnc1 [CH3 (CH2)14 --, 2-(1H-imidazol-1-yl)-ethyl hexadecanoate ethanedioate (1:1)]	44	–
CC(=O)OCCn1ccnc1 [CH3]	82	–
OCCn1ccnc1 [imidazolethanol, 1H-imidazole-1-ethanol]	–	inhibition in vivo at 1000 µg/day ([1]; Mesocricetus auratus, read-out: lipid synthesis inhibition): 37%
CC1=C(/C=C/C(C)=C/C=C/C(C)=C/C(=O)OCCn2ccnc2)C(C)(C)CCC1 [retinoic acid, 2-(1H-imidazol-1-yl)-ethyl retinoate ethanedioate (2:1)]	39	–
